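In this assay, cells in 96-well plates receive the compound at five concentrations for 48 hours. Endpoints are linearly interpolated between the surrounding concentrations. GI50 is the concentration that inhibits growth by half.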 Activity calls are given as the source filed them. No stated cut-off is given here; in the data, active = GI50 up to about 1.1 µM and inactive = higher.
Assays:
Assay in all cases: NCI tumour cell line growth inhibition, 48 h
[1] = test system: T47D
[2] = test system: KM12
[3] = test system: NCI-H460
[4] = test system: MDA-N
[5] = test system: COLO 205
[6] = test system: SW-620
[7] = test system: NCI-H23
[8] = test system: HCT-15
[9] = test system: UACC-62
[10] = test system: HOP-92
[11] = test system: SR
[12] = test system: MCF7
[13] = test system: M14
[14] = test system: OVCAR-8
[15] = test system: IGROV-1
[16] = test system: DU-145
[17] = test system: BT-549
[18] = test system: HT-29
[19] = test system: 786-0
[20] = test system: Malme-3M
[21] = test system: Hs-578T
[22] = test system: SK-MEL-5
[23] = test system: U-251
[24] = test system: LOX IMVI
[25] = test system: SNB-75
[26] = test system: HCC 2998
[27] = test system: K562
[28] = test system: A498
[29] = test system: MDA-MB-231
[30] = test system: MOLT-4
[31] = test system: CCRF-CEM
[32] = test system: SK-OV-3
[33] = test system: RPMI-8226
[34] = test system: SF-268
[35] = test system: SN12C
[36] = test system: UO-31
[37] = test system: EKVX
[38] = test system: CAKI-1
[39] = test system: TK-10
[40] = test system: NCI/ADR-RES
[41] = test system: HL-60
[42] = test system: HOP-62
[43] = test system: UACC-257
[44] = test system: OVCAR-4
[45] = test system: SF-539
[46] = test system: A549
[47] = test system: RXF 393
[48] = test system: OVCAR-3
[49] = test system: SK-MEL-2
[50] = test system: SK-MEL-28
[51] = test system: HCT-116
[52] = test system: NCI-H226
[53] = test system: OVCAR-5
[54] = test system: PC-3
[55] = test system: ACHN
[56] = test system: SNB-19
[57] = test system: SF-295

## O=C1N=C2SC(=S)N=C(S)N2NC12c1ccccc1-c1ccccc12
[1]
  GI50: 1.38 µM (inactive)
[2]
  GI50: > 10 µM (inactive)
[3]
  GI50: 0.736 µM (active)
[4]
  GI50: > 10 µM (inactive)
[5]
  GI50: > 10 µM (inactive)
[6]
  GI50: > 10 µM (inactive)
[7]
  GI50: 9.4 µM (inactive)
[8]
  GI50: > 10 µM
[9]
  GI50: > 10 µM (inactive)
[10]
  GI50: > 10 µM (inactive)
[11]
  GI50: > 10 µM (inactive)
[12]
  GI50: 6.81 µM (inactive)
[13]
  GI50: > 10 µM (inactive)
[14]
  GI50: > 10 µM (inactive)
[15]
  GI50: > 10 µM (inactive)
[16]
  GI50: > 10 µM (inactive)
[17]
  GI50: > 10 µM (inactive)
[18]
  GI50: 7.01 µM (inactive)
[19]
  GI50: > 10 µM (inactive)
[20]
  GI50: > 10 µM (inactive)
[21]
  GI50: > 10 µM (inactive)
[22]
  GI50: 8.49 µM (inactive)
[23]
  GI50: > 10 µM (inactive)
[24]
  GI50: > 10 µM (inactive)
[25]
  GI50: > 10 µM (inactive)
[26]
  GI50: > 10 µM (inactive)
[27]
  GI50: 8.17 µM (inactive)
[28]
  GI50: 1.55 µM (inactive)
[29]
  GI50: > 10 µM (inactive)
[30]
  GI50: > 10 µM (inactive)
[31]
  GI50: 7.78 µM (inactive)
[32]
  GI50: > 10 µM (inactive)
[33]
  GI50: 7.57 µM (inactive)
[34]
  GI50: > 10 µM (inactive)
[35]
  GI50: > 10 µM (inactive)
[36]
  GI50: 6.28 µM (inactive)
[37]
  GI50: 3.67 µM (inactive)
[38]
  GI50: > 10 µM (inactive)
[39]
  GI50: > 10 µM (inactive)
[40]
  GI50: 3.61 µM (inactive)
[41]
  GI50: > 10 µM (inactive)
[42]
  GI50: > 10 µM (inactive)
[43]
  GI50: 5.68 µM (inactive)
[44]
  GI50: 5.13 µM (inactive)
[45]
  GI50: > 10 µM (inactive)
[46]
  GI50: > 10 µM (inactive)

## CN(C)c1ccc(/C=C2\C[C@H]3[C@@H]4CCC5=CC(=O)CC[C@]5(C)[C@H]4CC[C@]3(C)C2=O)cc1
[1]
  GI50: 17.4 µM (inactive)
[2]
  GI50: 72.1 µM (inactive)
[3]
  GI50: 17.4 µM (inactive)
[47]
  GI50: 99.5 µM (inactive)
[48]
  GI50: 88.1 µM (inactive)
[4]
  GI50: 19.5 µM (inactive)
[5]
  GI50: 21.7 µM (inactive)
[49]
  GI50: 50.9 µM (inactive)
[6]
  GI50: 48.9 µM (inactive)
[7]
  GI50: 52.7 µM (inactive)
[8]
  GI50: 34.4 µM
[9]
  GI50: 20 µM (inactive)
[10]
  GI50: 22.4 µM (inactive)
[11]
  GI50: 17.7 µM (inactive)
[12]
  GI50: 21.8 µM (inactive)
[13]
  GI50: 43.9 µM (inactive)
[14]
  GI50: 31.8 µM (inactive)
[15]
  GI50: 63.1 µM (inactive)
[16]
  GI50: 76.6 µM (inactive)
[17]
  GI50: 51.2 µM (inactive)
[18]
  GI50: 23.9 µM (inactive)
[50]
  GI50: > 100 µM (inactive)
[51]
  GI50: 24.7 µM (inactive)
[19]
  GI50: 48 µM (inactive)
[20]
  GI50: 25 µM (inactive)
[52]
  GI50: 62.4 µM (inactive)
[21]
  GI50: 38.4 µM (inactive)
[22]
  GI50: 12.4 µM (inactive)
[23]
  GI50: 20.2 µM (inactive)
[24]
  GI50: 20.8 µM (inactive)
[25]
  GI50: > 100 µM (inactive)
[53]
  GI50: > 100 µM (inactive)
[27]
  GI50: 19 µM (inactive)
[28]
  GI50: 37.7 µM (inactive)
[29]
  GI50: 38.9 µM (inactive)
[30]
  GI50: 14.8 µM (inactive)
[32]
  GI50: > 100 µM (inactive)
[33]
  GI50: 17.5 µM (inactive)
[34]
  GI50: 46.3 µM (inactive)
[35]
  GI50: 44.3 µM (inactive)
[36]
  GI50: 63.2 µM (inactive)
[37]
  GI50: 19.2 µM (inactive)
[38]
  GI50: > 100 µM (inactive)
[39]
  GI50: 32.5 µM (inactive)
[40]
  GI50: 38.3 µM (inactive)
[54]
  GI50: 12.6 µM (inactive)
[41]
  GI50: 17.2 µM (inactive)
[42]
  GI50: > 100 µM (inactive)
[55]
  GI50: 29.4 µM (inactive)
[43]
  GI50: 19 µM (inactive)
[44]
  GI50: 59.7 µM (inactive)
[45]
  GI50: 28.7 µM (inactive)
[56]
  GI50: > 100 µM (inactive)
[46]
  GI50: 38 µM (inactive)
[57]
  GI50: > 100 µM (inactive)
